Reference: ChEMBL document CHEMBL5050844 (2019)

Columns and labels:
[1] = Induction of anti-CD3/CD28 antibodies-stimulated human T cell activation at 4 uM assessed fold increase in IL-2 secretion measured by ELISA assay; assay type: functional, T cell line
[2] = Induction of anti-CD3/CD28 antibodies-stimulated human T cell activation at 1 uM assessed fold increase in IL-2 secretion measured by ELISA assay; assay type: functional, T cell line
[3] = Induction of anti-CD3 antibodies-stimulated human T cell activation at 1 uM assessed fold increase in IL-2 secretion measured by ELISA assay; assay type: functional, T cell line
[4] = Induction of anti-CD3/CD28 antibodies-stimulated human T cell activation at 4 uM assessed fold increase in CD25 expression measured by ELISA assay; assay type: functional, T cell line
[5] = Induction of anti-CD3/CD28 antibodies-stimulated human CD4+ T cell activation at 10 uM assessed fold increase in CD69 expression measured by flow cytometry analysis; assay type: functional, T cell line
[6] = Induction of anti-CD3/CD28 antibodies-stimulated human CD4+ T cell activation at 1.11 uM assessed fold increase in CD69 expression measured by flow cytometry analysis; assay type: functional, T cell line
[7] = Induction of anti-CD3/CD28 antibodies-stimulated human CD4+ T cell activation at 10 uM assessed fold increase in cell proliferation measured by flow cytometry analysis; assay type: functional, T cell line
[8] = Induction of anti-CD3/CD28 antibodies-stimulated human CD8+ T cell activation at 10 uM assessed fold increase in CD69 expression measured by flow cytometry analysis; assay type: functional, T cell line
[9] = Induction of anti-CD3/CD28 antibodies-stimulated human CD8+ T cell activation at 1.11 uM assessed fold increase in CD69 expression measured by flow cytometry analysis; assay type: functional, T cell line
[10] = Induction of anti-CD3/CD28 antibodies-stimulated human CD8+ T cell activation at 1.11 uM assessed fold increase in cell proliferation measured by flow cytometry analysis; assay type: functional, T cell line
[11] = Induction of anti-CD3 antibodies-stimulated human CD4+ T cell activation at 10 uM assessed fold increase in CD69 expression measured by flow cytometry analysis; assay type: functional, T cell line
[12] = Induction of anti-CD3 antibodies-stimulated human CD8+ T cell activation at 10 uM assessed fold increase in CD69 expression measured by flow cytometry analysis; assay type: functional, T cell line
[13] = Induction of anti-CD3 antibodies-stimulated human CD8+ T cell activation at 1.11 uM assessed fold increase in CD69 expression measured by flow cytometry analysis; assay type: functional, T cell line
[14] = Induction of anti-CD3 antibodies-stimulated human CD8+ T cell activation at 10 uM assessed fold increase in cell proliferation measured by flow cytometry analysis; assay type: functional, T cell line
[15] = Induction of anti-CD3 antibodies-stimulated human CD8+ T cell activation at 1.11 uM assessed fold increase in cell proliferation measured by flow cytometry analysis; assay type: functional, T cell line
[16] = Induction of anti-CD3/CD28 antibodies-stimulated human T cell activation at 10 uM assessed fold increase in GM-CSF secretion measured by ELISA assay; assay type: functional, T cell line
[17] = Induction of anti-CD3/CD28 antibodies-stimulated human T cell activation at 1.11 uM assessed fold increase in GM-CSF secretion measured by ELISA assay; assay type: functional, T cell line
[18] = Induction of anti-CD3 antibodies-stimulated human T cell activation at 10 uM assessed fold increase in GM-CSF secretion measured by ELISA assay; assay type: functional, T cell line
[19] = Induction of anti-CD3 antibodies-stimulated human T cell activation at 1.11 uM assessed fold increase in GM-CSF secretion measured by ELISA assay; assay type: functional, T cell line
[20] = Induction of anti-CD3/CD28 antibodies-stimulated human T cell activation at 1.11 uM assessed fold increase in TNF-alpha secretion measured by ELISA assay; assay type: functional, T cell line
[21] = Induction of anti-CD3 antibodies-stimulated human T cell activation at 10 uM assessed fold increase in TNF-alpha secretion measured by ELISA assay; assay type: functional, T cell line
[22] = Induction of anti-CD3 antibodies-stimulated human T cell activation at 1.11 uM assessed fold increase in TNF-alpha secretion measured by ELISA assay; assay type: functional, T cell line
[23] = Induction of anti-CD3/CD28 antibodies-stimulated human T cell activation at 1.11 uM assessed fold increase in IFN-gamma secretion measured by ELISA assay; assay type: functional, T cell line
[24] = Induction of anti-CD3 antibodies-stimulated human T cell activation at 1.11 uM assessed fold increase in IFN-gamma secretion measured by ELISA assay; assay type: functional, T cell line
[25] = Induction of allogenic human T cell activation at 3 uM assessed fold increase in cell proliferation; assay type: functional, T cell line
[26] = Induction of anti-CD3 antibodies-stimulated human exhausted T cell activation assessed fold increase in IFN-gamma secretion measured by ELISA assay; assay type: functional, T cell line
[27] = Induction of anti-CD3 antibodies-stimulated human exhausted T cell activation assessed fold increase in IL-2 secretion measured by ELISA assay; assay type: functional, T cell line
[28] = Induction of anti-CD3 antibodies-stimulated human exhausted T cell activation assessed fold increase in GM-CSF secretion measured by ELISA assay; assay type: functional, T cell line
[29] = Induction of anti-CD3 antibodies-stimulated human exhausted CD4+ T cell activation assessed fold increase in CTLA4 expression measured by flow cytometry analysis; assay type: functional, T cell line
[30] = Induction of anti-CD3/CD28 antibodies-stimulated human anergic T cell activation at 10 uM assessed fold increase in IFN-gamma secretion measured by ELISA assay; assay type: functional, T cell line
[31] = Induction of anti-CD3/CD28 antibodies-stimulated human anergic T cell activation at 0.37 uM assessed fold increase in IFN-gamma secretion measured by ELISA assay; assay type: functional, T cell line
B cell = assay: Induction of anti-IgM-stimulated human CD20+ B cell activation at 10 to 1000 uM assessed as increase in CD69 expression measured as mean fluorescence intensity AUC by flow cytometry analysis; assay type: functional, cell-based; details: dose 10-1000 µM
[32] = Induction of activation of human CD56+ CD3- NK cells co-cultured with human K562 cells in 1:1 ratio and assessed as increase in IFN-gamma secretion at 10 uM measured by ELISA assay; assay type: functional, Natural killer cell
[33] = Induction of activation of human CD56+ CD3- NK cells co-cultured with human K562 cells in 1:1 ratio and assessed as increase in TNF-alpha secretion at 10 uM measured by ELISA assay; assay type: functional, Natural killer cell
[34] = Induction of activation of human CD56+ CD3- NK cells co-cultured with human K562 cells in 1:1 ratio and assessed as increase in IFN-gamma secretion at 2.5 uM measured by ELISA assay; assay type: functional, Natural killer cell
[35] = Induction of activation of human CD56+ CD3- NK cells co-cultured with human K562 cells in 1:1 ratio and assessed as increase in IFN-gamma secretion at 0.625 uM measured by ELISA assay; assay type: functional, Natural killer cell
[36] = Induction of activation of human CD56+ CD3- NK cells co-cultured with human K562 cells in 1:1 ratio and assessed as increase in TNF-alpha secretion at 2.5 uM measured by ELISA assay; assay type: functional, Natural killer cell
[37] = Induction of activation of human CD56+ CD3- NK cells co-cultured with human K562 cells in 1:1 ratio and assessed as increase in TNF-alpha secretion at 0.625 uM measured by ELISA assay; assay type: functional, Natural killer cell

SMILES	fold change (FC) [1]	fold change (FC) [2]	fold change (FC) [3]	fold change (FC) [4]	fold change (FC) [5]	fold change (FC) [6]	fold change (FC) [7]	fold change (FC) [8]	fold change (FC) [9]	fold change (FC) [10]	fold change (FC) [11]	fold change (FC) [12]	fold change (FC) [13]	fold change (FC) [14]	fold change (FC) [15]	fold change (FC) [16]	fold change (FC) [17]	fold change (FC) [18]	fold change (FC) [19]	fold change (FC) [20]	further results
Cn1cnnc1CC1(c2cccc(N3Cc4c(cc(CN5CC[C@H](C#N)C5)cc4C(F)(F)F)C3=O)c2)COC1	>=7.5	>=7.5	>=0.201	1.31	1.401	1.201	>4	1.201	1.201	2.01	>1.601	1.201	<=1.2	>4	3.01	>4	2.01	2.01	2.01	2.01	fold change (FC) [21]: 1.51; fold change (FC) [22]: <=1.5; fold change (FC) [23]: 3.01; fold change (FC) [24]: <=2; fold change (FC) [25]: <=2; fold change (FC) [26]: <=1.4; fold change (FC) [27]: <=2.5; fold change (FC) [28]: 1.41; fold change (FC) [29]: >1.61; fold change (FC) [30]: 2.51; fold change (FC) [31]: <=2.5; AUC (B cell): 1.01; fold change (FC) [32]: 2.01; fold change (FC) [33]: 2.01; fold change (FC) [34]: 1.01; fold change (FC) [35]: 2.01; fold change (FC) [36]: 1.01; fold change (FC) [37]: 1.01
C[C@H](Cc1nncn1C)c1cccc(NC(=O)c2n[nH]c3c2CCC3)c1	2.51	1.01	0.101	1.01	1.201	1.401	>4	1.201	1.201	3.01	1.201	<=1.2	1.401	2.01	>4	2.01	<=1.5	1.51	<=1.5	<=1.5	fold change (FC) [21]: <=1.5; fold change (FC) [22]: <=1.5; fold change (FC) [23]: <=2; fold change (FC) [24]: 2.01; fold change (FC) [25]: <=2; fold change (FC) [26]: <=1.4; fold change (FC) [27]: <=2.5; fold change (FC) [28]: <=1.4; fold change (FC) [29]: <=1.4; fold change (FC) [30]: <=2.5; fold change (FC) [31]: <=2.5; AUC (B cell): 0.5; fold change (FC) [32]: 2.01; fold change (FC) [33]: 1.01; fold change (FC) [34]: <=1; fold change (FC) [35]: 1.01; fold change (FC) [36]: 1.01; fold change (FC) [37]: 1.01
C[C@H](Sc1nncn1C)c1cccc(NC(=O)c2cccc(C(F)(F)F)n2)c1	>=7.5	2.51	0.051	>=1.76	<=1.2	<=1.2	<=2	<=1.2	<=1.2	<=2	<=1.2	<=1.2	<=1.2	<=2	<=2	2.01	1.51	2.01	1.51	1.51	fold change (FC) [21]: 1.51; fold change (FC) [22]: 1.51; fold change (FC) [23]: <=2; fold change (FC) [24]: <=2; fold change (FC) [25]: <=2; fold change (FC) [26]: <=1.4; fold change (FC) [27]: <=2.5; fold change (FC) [28]: 1.41; fold change (FC) [29]: <=1.4; fold change (FC) [30]: 2.51; fold change (FC) [31]: <=2.5; AUC (B cell): 0.5; fold change (FC) [32]: 2.01; fold change (FC) [33]: 1.01; fold change (FC) [34]: 1.01; fold change (FC) [35]: <=1; fold change (FC) [36]: 1.01; fold change (FC) [37]: 1.01
C[C@@H](c1cc2c(c(C(F)(F)F)c1)CN(c1cccc(C3(Cc4nncn4C)COC3)c1)C2=O)N1CC[C@H](F)C1	>=7.5	>=7.5	>=0.201	1.51	1.401	1.401	>4	1.201	1.201	>4	>1.601	1.401	1.401	>4	>4	>4	>4	>4	>4	2.01	fold change (FC) [21]: 2.01; fold change (FC) [22]: 1.51; fold change (FC) [23]: >4; fold change (FC) [24]: 3.01; fold change (FC) [25]: >3; fold change (FC) [26]: >1.61; fold change (FC) [27]: <=2.5; fold change (FC) [28]: 1.41; fold change (FC) [29]: <=1.4; fold change (FC) [30]: >4.01; fold change (FC) [31]: <=2.5; AUC (B cell): > 1.51; fold change (FC) [32]: >=5; fold change (FC) [33]: 2.01; fold change (FC) [34]: 2.01; fold change (FC) [35]: 2.01; fold change (FC) [36]: 2.01; fold change (FC) [37]: 2.01
